18 compounds from US20050004211A1, “Pharmaceutical compositions comprising aryl-substituted acyclic enediyne compounds” (KAOHSIUNG MEDICAL UNIVERSITY, priority 2003, published 2005) can be followed below.

The subject of data set [1] is Non-small cell Lung cancer cell NCI-H460. Put plainly: Preliminary cytotoxicity test. It is filed as cell-based, human.
Data set [2] concerns CNS cancer cell SF-268. The data set is described as follows: Preliminary cytotoxicity test. Format: cell-based, human.
Data set [3] deals with Breast cancer cell MCF-7. The data set is described as follows: Preliminary cytotoxicity test. Format: cell-based, human.
Data set [4] concerns Hela: human cervix epitheloid carcinoma. The data set is described as follows: In vitro anticancer assay (cytotoxicity), human solid tumor cells. The conditions noted are these: for IC50: Homo sapiens, HeLa, read-out: IC50 Values of Cytotoxicities, Hela.
In data set [5] the test system is NCI (NCI-H661): human lung large cell carcinoma. Described as above. To be noted: for IC50: Homo sapiens, NCI-H661, read-out: IC50 Values of Cytotoxicities, NCI; for IC50 Values of Cytotoxicities, NCI: NCI (NCI-H661).
The test system of data set [6] is KB: human oral epidermoid carcinoma. Described as above. The conditions noted are these: for IC50: Homo sapiens, read-out: IC50 Values of Cytotoxicities, KB.
The target in data set [7] is T1, topoisomerase I (Homo sapiens, UniProt P11387).
T1 sequence (P11387 1-765): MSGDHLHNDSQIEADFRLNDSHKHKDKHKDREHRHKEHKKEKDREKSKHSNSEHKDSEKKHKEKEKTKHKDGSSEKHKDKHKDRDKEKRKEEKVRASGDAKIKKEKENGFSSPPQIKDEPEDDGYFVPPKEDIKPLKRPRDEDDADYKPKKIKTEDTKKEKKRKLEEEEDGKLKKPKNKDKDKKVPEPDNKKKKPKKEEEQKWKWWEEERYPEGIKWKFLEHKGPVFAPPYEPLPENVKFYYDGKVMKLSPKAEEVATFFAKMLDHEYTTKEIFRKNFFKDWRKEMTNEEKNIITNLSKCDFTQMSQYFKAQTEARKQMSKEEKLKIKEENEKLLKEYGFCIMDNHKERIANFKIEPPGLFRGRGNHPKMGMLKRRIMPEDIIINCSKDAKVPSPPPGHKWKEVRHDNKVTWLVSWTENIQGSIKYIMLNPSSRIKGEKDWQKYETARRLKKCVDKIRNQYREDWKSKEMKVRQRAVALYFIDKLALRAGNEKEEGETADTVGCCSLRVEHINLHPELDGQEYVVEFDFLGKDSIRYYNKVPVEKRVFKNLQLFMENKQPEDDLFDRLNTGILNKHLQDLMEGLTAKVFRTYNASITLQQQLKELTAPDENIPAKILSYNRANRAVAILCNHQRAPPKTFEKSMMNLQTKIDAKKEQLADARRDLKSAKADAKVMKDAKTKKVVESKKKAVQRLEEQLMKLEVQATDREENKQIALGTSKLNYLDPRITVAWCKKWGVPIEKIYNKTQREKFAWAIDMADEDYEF
The data set is described as follows: Topoisomerase I course assay, cleavage of supercoiled pGEM9zf(−) DNA, gel electrophoresis. It is filed as biochemical. The conditions noted are these: for topo I inhibitor, overall finding: no concentration stated.

Data set [8] deals with DLD (DLD-1): human colon adenocarcinoma. The data set is described as follows: In vitro anticancer assay (cytotoxicity), human solid tumor cells. The conditions noted are these: for IC50: Homo sapiens, DLD-1, read-out: IC50 Values of Cytotoxicities, DLD.
In data set [9] the test system is Hepa: human hepatoma. Described as above. The conditions noted are these: for IC50: Homo sapiens, HepA, read-out: IC50 Values of Cytotoxicities, Hepa.

Values after ≈ are worked out from the molar mass of the structure shown.

For the compound “2-(6-(2-thioanisyl)-3-hexen-1,5-diynyl)benzonitrile [Compound 31]”, the “Growth percentage, Non-small cell Lung cancer cell NCI-H460” value in data set [1] is listed as 100%. The “Growth percentage, CNS cancer cell SF-268” value in [2] was 164%. In data set [3], the “Growth percentage, Breast cancer cell MCF-7” value was found to be 62%.

Consider `CCCCC#C/C=C\C#Cc1ccccc1` [Compound 6, (3Z)-Decen-1,5-diynylbenzene], for which the IC50 is greater than 20 µg/mL in data set [4]; 7.35 µg/mL (≈ 35.3 µM) in [5]; 14.4 µg/mL (≈ 69.3 µM) in data set [6]; greater than 20 µg/mL in data set [8]; greater than 20 µg/mL in data set [9]. The “topo I inhibitor, overall finding” value in data set [7] was “not Topo I inhibitors”.

As to `N#Cc1ccccc1C#Cc1ccccc1C#CCOC1CCCCO1` (stereo not drawn) [Compound 7, 2-(2-(3-Tetrahydro-pyranyl-5-oxy-1-propynylphenyl)ethynyl)benzonitrile], in [4], the “IC50 Values of Cytotoxicities, Hela” value is reported as “— (“—” means IC50 >20 μg/ml)”. Further, the “IC50 Values of Cytotoxicities, NCI” value in data set [5] is recorded as “— (“—” means IC50 >20 μg/ml)”. In addition, the “IC50 Values of Cytotoxicities, KB” value in data set [6] is given as “— (“—” means IC50 >20 μg/ml)”. Also, in [8], the “IC50 Values of Cytotoxicities, DLD” value is on record as “— (“—” means IC50 >20 μg/ml)”. Further, in [9], the “IC50 Values of Cytotoxicities, Hepa” value is “— (“—” means IC50 >20 μg/ml)”.

Consider `N#Cc1ccccc1C#Cc1ccccc1C#CCCCOC1CCCCO1` (stereo not drawn) [Compound 8], for which the “IC50 Values of Cytotoxicities, Hela” value in data set [4] is given as “— (“—” means IC50 >20 μg/ml)”. Moreover, the “IC50 Values of Cytotoxicities, NCI” value in data set [5] was “— (“—” means IC50 >20 μg/ml)”. Besides, the “IC50 Values of Cytotoxicities, KB” value in [6] was “— (“—” means IC50 >20 μg/ml)”. The “IC50 Values of Cytotoxicities, DLD” value in data set [8] was found to be 11.65 µg/mL. Further, the “IC50 Values of Cytotoxicities, Hepa” value in data set [9] is recorded as “— (“—” means IC50 >20 μg/ml)”.

Consider `CCCCC#Cc1ccccc1C#Cc1ccccc1C#N` [Compound 9, 2-(2-(2-Hexynylphenyl)ethynyl)benzonitrile], for which the “IC50 Values of Cytotoxicities, Hela” value in data set [4] is “— (“—” means IC50 >20 μg/ml)”. Also, in [5], the “IC50 Values of Cytotoxicities, NCI” value was “— (“—” means IC50 >20 μg/ml)”. Also, the “IC50 Values of Cytotoxicities, KB” value in [6] was “— (“—” means IC50 >20 μg/ml)”. The “inhibition of topo I” value is “no supercoiled DNA observed” in [7] (0.87 μM compound), “no supercoiled DNA observed” in [7] (8.7 μM compound) and “showed restraint of topo I” in data set [7] (87 μM compound). Also, the “IC50 Values of Cytotoxicities, DLD” value in data set [8] amounted to 8.98 µg/mL. In data set [9], the “IC50 Values of Cytotoxicities, Hepa” value is given as “— (“—” means IC50 >20 μg/ml)”.

`CCCCCC#Cc1ccccc1C#Cc1ccccc1C#N` [Compound 10, 2-(2-(2-Heptynylphenyl)ethynyl)benzonitrile]: the “IC50 Values of Cytotoxicities, Hela” value in data set [4] is recorded as “— (“—” means IC50 >20 μg/ml)”. For the same compound, the “IC50 Values of Cytotoxicities, NCI” value in data set [5] stood at 9.22 µg/mL. Further, the “IC50 Values of Cytotoxicities, KB” value in data set [6] is “— (“—” means IC50 >20 μg/ml)”. Moreover, the “inhibition of topo I” value in data set [7] (0.87 μM compound) is “no inhibition of topo I”; in data set [7] (8.7 μM compound), “displayed inhibitory activity against topo I”; in [7] (87 μM compound) it was “displayed inhibitory activity against topo I”. In addition, the “IC50 Values of Cytotoxicities, DLD” value in data set [8] came out at 16.25 µg/mL. In data set [9], the “IC50 Values of Cytotoxicities, Hepa” value turned out to be 5.13 µg/mL.

For `CCCCCCC#C/C=C\C#Cc1ccc(C#C/C=C\C#CCCCCCC)cc1` [Compound 11, 1,4-Bis-(3-(Z)-Dodecen-1,5-diynyl)benzene], the IC50 in data set [4], in data set [5], in data set [6], in data set [8] and in data set [9] was greater than 20 µg/mL throughout. Further, the “inhibition of topo I” value in data set [7] (8.7 μM compound) and in data set [7] (87 μM compound) was “No supercoiled DNA was observed” in each case. In addition, the “topo I inhibitor, overall finding” value in data set [7] is given as “not topo I inhibitors”.

Take `CCCCCCC#C/C=C\C#Cc1ccc(-c2ccc(C#C/C=C\C#CCCCCCC)cc2)cc1` [Compound 12, 4,4′-Bis-(3-(Z)-Dodecen-1,5-diynyl)biphenyl]: the IC50 in data set [4] is greater than 20 µg/mL; in data set [5] it was greater than 20 µg/mL; in [6], 5.57 µg/mL (≈ 11.8 µM); in data set [8], greater than 20 µg/mL; in [9] it was greater than 20 µg/mL. Moreover, the “inhibition of topo I” value in data set [7] (8.7 μM compound) and in [7] (87 μM compound) was “No supercoiled DNA was observed” each time. The “topo I inhibitor, overall finding” value in data set [7] is reported as “not topo I inhibitors”.

With `CCCCCCC#C/C=C\C#Cc1ccc(C#N)cc1` [Compound 14, 4-(3-(Z)-Dodecen-1,5-diynyl)benzonitrile], the IC50 in data set [4] was greater than 20 µg/mL; in data set [5], greater than 20 µg/mL; in data set [6], greater than 20 µg/mL; in data set [8] it was 11.9 µg/mL (≈ 45.6 µM); in data set [9], greater than 20 µg/mL.

Consider `CCCCCCC#C/C=C\C#Cc1ccccn1` [Compound 15, 2-(3-(Z)-Dodecen-1,5-diynyl)pyridine], for which the half-maximal inhibitory concentration (IC50) was greater than 20 µg/mL in data set [4]; greater than 20 µg/mL in data set [5]; greater than 20 µg/mL in data set [6]; 5.15 µg/mL (≈ 21.7 µM) in data set [8]; greater than 20 µg/mL in data set [9].

For `CCCCCCC#C/C=C\C#Cc1cccs1` [Compound 16, 2-(3-(Z)-Dodecen-1,5-diynyl)thiophene], the IC50 was greater than 20 µg/mL in data set [4]; greater than 20 µg/mL in data set [5]; greater than 20 µg/mL in data set [6]; 6.75 µg/mL (≈ 27.8 µM) in [8]; greater than 20 µg/mL in data set [9].

Take `CCCCCCC#C/C=C\C#Cc1cnccn1` [Compound 17, 2-(3-(Z)-Dodecen-1,5-diynyl)pyrazine]: the IC50 worked out at 5.3 µg/mL (≈ 22.2 µM) in [4]; 9.43 µg/mL (≈ 39.6 µM) in data set [5]; 5.93 µg/mL (≈ 24.9 µM) in data set [6]; 3.89 µg/mL (≈ 16.3 µM) in data set [8]; 12.3 µg/mL (≈ 51.8 µM) in data set [9].

With `CCCCCCC#C/C=C\C#Cc1ccc(C(F)(F)F)cc1` [Compound 18, 4-(3-(Z)-Dodecen-1,5-diynyl)trifluoromethylbenzene], the “IC50 Values of Cytotoxicities, Hela” value in data set [4] worked out at 5.86 µg/mL. Besides, in data set [5], the “IC50 Values of Cytotoxicities, NCI” value is 11.15 µg/mL. Further, the “IC50 Values of Cytotoxicities, KB” value in data set [6] amounted to 4.32 µg/mL. Further, the “inhibition of topo I” value in data set [7] (87 μM compound) is “displayed inhibitory activities of topo I”. Moreover, the “IC50 Values of Cytotoxicities, DLD” value in [8] came to 5.71 µg/mL. The “IC50 Values of Cytotoxicities, Hepa” value in data set [9] was determined as 17.08 µg/mL.

`CCCCCCC#C/C=C\C#Cc1cccc(C(F)(F)F)c1` [Compound 19, 3-(3-(Z)-Dodecen-1,5-diynyl)trifluoromethylbenzene]: the “IC50 Values of Cytotoxicities, Hela” value in data set [4] was “— (“—” means IC50 >20 μg/ml)”. For the same compound, the “IC50 Values of Cytotoxicities, NCI” value in [5] was 7.73 µg/mL. Moreover, the “IC50 Values of Cytotoxicities, KB” value in data set [6] was found to be 6.74 µg/mL. Besides, in [8], the “IC50 Values of Cytotoxicities, DLD” value amounted to 7.05 µg/mL. Moreover, in [9], the “IC50 Values of Cytotoxicities, Hepa” value stood at 14.39 µg/mL.

In the case of `CCCCCCC#C/C=C\C#Cc1ccccc1C(F)(F)F` [Compound 20, 2-(3-(Z)-Dodecen-1,5-diynyl)trifluoromethylbenzene], in [4], the “IC50 Values of Cytotoxicities, Hela” value turned out to be 2.15 µg/mL. Further, in [5], the “IC50 Values of Cytotoxicities, NCI” value amounted to 5.02 µg/mL. In addition, the “IC50 Values of Cytotoxicities, KB” value in [6] was found to be 19.65 µg/mL. Moreover, in data set [8], the “IC50 Values of Cytotoxicities, DLD” value was 8.91 µg/mL. In addition, the “IC50 Values of Cytotoxicities, Hepa” value in data set [9] was found to be 12.24 µg/mL.

With `CCCCCCC#C/C=C\C#Cc1ccc([N+](=O)[O-])cc1` [Compound 21, 4-nitro-1-(3-(Z)-dodecen-1,5-diynyl)benzene], the IC50 in data set [4] was greater than 20 µg/mL; in [5], greater than 20 µg/mL; in data set [6] it was 13 µg/mL (≈ 46.2 µM); in data set [8], 1.66 µg/mL (≈ 5.9 µM); in data set [9], greater than 20 µg/mL.

As to `CCCCCCC#C/C=C\C#Cc1ccccc1C(=O)O` [Compound 22, 2-(3-(Z)-Dodecen-1,5-diynyl)benzoate], in data set [4], the “IC50 Values of Cytotoxicities, Hela” value was “— (“—” means IC50 >20 μg/ml)”. Moreover, the “IC50 Values of Cytotoxicities, NCI” value in data set [5] is on record as “— (“—” means IC50 >20 μg/ml)”. Also, in [6], the “IC50 Values of Cytotoxicities, KB” value is on record as “— (“—” means IC50 >20 μg/ml)”. Moreover, the “IC50 Values of Cytotoxicities, DLD” value in [8] came to 7.27 µg/mL. Further, the “IC50 Values of Cytotoxicities, Hepa” value in [9] is given as “— (“—” means IC50 >20 μg/ml)”.

`CC[C@@]1(O)C(=O)OCc2c1cc1n(c2=O)Cc2cc3ccccc3nc2-1` [camptothecin, reference compound]: the “inhibition of topo I” value is given as “less topo I inhibitory activity” in data set [7] (26.1 μM) and “observable inhibition of topo I” in [7] (43.5 μM).
